Assay results from paper PMC5883864 (Chemical Science, 2017).

Target: glucose oxidase (GOx) (Aspergillus niger, UniProt P13006)
Experiment: HRP-coupled chromogenic assay of H2O2
Assay type: biochemical
Conditions: free enzyme; O2 co-substrate

glucose oxidase (GOx), sequence (P13006 17-605): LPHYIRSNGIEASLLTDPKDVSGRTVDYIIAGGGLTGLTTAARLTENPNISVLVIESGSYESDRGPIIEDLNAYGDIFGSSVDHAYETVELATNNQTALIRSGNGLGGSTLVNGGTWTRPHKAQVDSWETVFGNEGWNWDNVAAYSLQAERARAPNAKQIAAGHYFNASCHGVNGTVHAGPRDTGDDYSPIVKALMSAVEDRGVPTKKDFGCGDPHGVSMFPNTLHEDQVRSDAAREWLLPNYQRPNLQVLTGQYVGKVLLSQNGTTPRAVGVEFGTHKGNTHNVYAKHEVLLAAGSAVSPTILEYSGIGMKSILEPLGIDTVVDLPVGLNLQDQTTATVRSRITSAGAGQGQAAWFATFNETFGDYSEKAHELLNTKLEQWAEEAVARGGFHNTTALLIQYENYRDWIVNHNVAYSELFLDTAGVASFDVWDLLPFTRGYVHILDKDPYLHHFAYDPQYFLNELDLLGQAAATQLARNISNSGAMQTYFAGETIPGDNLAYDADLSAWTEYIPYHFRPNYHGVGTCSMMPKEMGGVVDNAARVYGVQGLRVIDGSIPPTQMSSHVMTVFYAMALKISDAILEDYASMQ

`OC[C@H]1OC(O)[C@H](O)[C@@H](O)[C@@H]1O` (stereo partly shown) [glucose] was tested, and the KM was “glucose diffuses in and one of the products, namely hydrogen peroxide, must diffuse out”.
